Values of other authors as cited in patent US20260207703A1 (priority 2023, published 2026).

Settings: in vivo

SMILES: C=C1CC[C@@]2(O)[C@H]3Cc4ccc(O)c5c4[C@@]2(CCN3CC2CC2)[C@H]1O5 [nalmefene, 17-cyclopropylmethyl-4,5α-epoxy-6-methylenemorphinan-3,14-diol]
- half-life: 8 to 11 h

SMILES: C=CCN1CC[C@]23c4c5ccc(O)c4O[C@H]2C(=O)CC[C@@]3(O)[C@H]1C5 [Naloxone]
- half-life: ~ 1 hr.
